Among the data in PubChem BioAssay (NCI) are GI50 and TGI values, retold here.

“And” between values parts separate entries of the source, which are not always exact repeats. Equal values may be shown once.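 The compound was tested at five concentrations on cells cultured in 96-well plates, with a 48-hour exposure period. Here, GI50 denotes the concentration required for 50% inhibition of growth. TGI: concentration producing complete growth inhibition.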

Among the test systems are SF-268 CNS; U251 CNS; SF-295 CNS; OVCAR-4 ovarian; SR leukemia; K-562 leukemia; HT29 colon; NCI-H522 lung; COLO 205 colon; A498 renal.
Common to all, as to test: growth of human tumour cells (NCI), 48 h

In the case of `CC1OC(OC2C(OC3CCC4(C)C(CCC5(C)C4CC=C4C6CC(C)(C)CCC6(CO)C(O)CC45C)C3(C)C)OC(C(=O)O)C(OC3OC(COC4OC(CO)C(O)C(O)C4O)C(O)C(O)C3O)C2O)C(O)C(O)C1O` (configuration not stated), the GI50 was 13.1 µM in the assay on SF-268 CNS; 10.2 µM with U251 CNS; 8.13 µM in the assay on SF-295 CNS; 3.1 µM with OVCAR-4 ovarian; 1.97 µM with SR leukemia; 3.09 µM in the assay on K-562 leukemia. For the same compound, the GI50 was 11.9 µM in the assay on HT29 colon, 1.43 µM in the assay on NCI-H522 lung, 1.75 µM in the assay with COLO 205 colon and 13.2 µM in the assay with A498 renal. In addition, the TGI came to 27.1 µM in the assay on SF-268 CNS; 22.1 µM in the assay on U251 CNS; 20.2 µM in the assay on SF-295 CNS; 12.8 µM in the assay with OVCAR-4 ovarian; 5.63 µM with SR leukemia; 15.4 µM in the assay on K-562 leukemia. In addition, the TGI in the assay on HT29 colon was determined as 25.5 µM; in the assay with NCI-H522 lung, 2.95 µM; in the assay with COLO 205 colon it was 4.39 µM; in the assay with A498 renal, 23.9 µM.

Consider `CCN1CCC(O)(c2ccccc2)C(C(=O)c2ccccc2)C1` (configuration not stated), for which the TGI was more than 31.6 µM in the assay on SF-268 CNS; more than 100 µM in the assay with U251 CNS; more than 100 µM in the assay with SF-295 CNS; 32.8 µM with OVCAR-4 ovarian; 60.3 µM in the assay with SR leukemia; more than 66 µM in the assay on K-562 leukemia. The TGI was 39.7 µM in the assay on HT29 colon, 6.87 µM in the assay on NCI-H522 lung, 53.1 µM with COLO 205 colon and more than 100 µM in the assay on A498 renal.

`C[CH2][Sn]([CH2]C)([O]C(=O)c1cc(OC)c(OC)c(OC)c1)[O][Sn]([CH2]C)([CH2]C)[O]C(=O)c1cc(OC)c(OC)c(OC)c1`: the GI50 in the assay with SF-268 CNS is 20.6 µM; in the assay with U251 CNS, 18.2 µM; in the assay with SF-295 CNS it was 76.5 µM; in the assay on OVCAR-4 ovarian it was more than 100 µM; in the assay on SR leukemia, 36.3 µM; with K-562 leukemia it was 20.9 µM. Moreover, the GI50 was 48.1 µM in the assay with HT29 colon, 1.91 µM with NCI-H522 lung, 20.3 µM in the assay on COLO 205 colon and 25.6 µM in the assay on A498 renal. The TGI is 44.1 µM with SF-268 CNS; 33.1 µM with U251 CNS; more than 100 µM in the assay on SF-295 CNS; more than 100 µM in the assay with OVCAR-4 ovarian; more than 100 µM in the assay with SR leukemia; more than 64.9 µM with K-562 leukemia. The TGI in the assay with HT29 colon was more than 100 µM; in the assay with NCI-H522 lung it was 5.65 µM; in the assay on COLO 205 colon it was 43.6 µM; with A498 renal it was 43.9 µM.

As for `CCN1N=CSC12C(=O)N(c1ccccc1)C(=O)N2c1ccccc1` (configuration not stated), the TGI in the assay on SF-268 CNS, with U251 CNS, in the assay with SF-295 CNS, in the assay with OVCAR-4 ovarian, with SR leukemia and in the assay with K-562 leukemia was more than 100 µM in each case. The TGI with HT29 colon, in the assay with NCI-H522 lung, with COLO 205 colon and with A498 renal was more than 100 µM throughout.

Take `O=[N+]([O-])c1ccc([I+]c2ccccc2)cc1`: the GI50 in the assay on SF-268 CNS is 1.65 µM; in the assay on U251 CNS, 1.71 µM; in the assay on SF-295 CNS, 1.64 µM; in the assay with OVCAR-4 ovarian, 1.67 µM; with HT29 colon, 2.08 µM; with NCI-H522 lung it was 1.52 µM. The GI50 in the assay on COLO 205 colon is 1.37 µM. For the same compound, the TGI was 13.1 µM and 3.11 µM in the assay with SF-268 CNS; 10.9 µM and 3.43 µM in the assay with U251 CNS; 10.1 µM and 3.24 µM in the assay on SF-295 CNS; 11.9 µM and 3.69 µM in the assay on OVCAR-4 ovarian; more than 47.8 µM with SR leukemia; more than 53.2 µM with K-562 leukemia. Also, the TGI in the assay with HT29 colon was 8.33 µM and 5.08 µM; in the assay with NCI-H522 lung, 4.2 µM and 3.03 µM; in the assay with COLO 205 colon, 13.5 µM and 3.82 µM; in the assay on A498 renal it was 6.49 µM and 5.48 µM.

In the case of `COc1ccc(C2=NN(c3ccc(S(N)(=O)=O)cc3)C(c3ccc(Cl)cc3)C2)c(O)c1` (configuration not stated), the GI50 with SF-268 CNS is 5.7 µM; in the assay on U251 CNS, 4.47 µM; in the assay with SF-295 CNS, 3.1 µM; with OVCAR-4 ovarian, 4.51 µM; with SR leukemia it was 0.897 µM; in the assay with K-562 leukemia, 1.8 µM. The GI50 in the assay on HT29 colon was 2.83 µM; in the assay on NCI-H522 lung, 2.42 µM; in the assay on COLO 205 colon, 3.59 µM; in the assay with A498 renal, 3.89 µM. Moreover, the TGI in the assay on SF-268 CNS came to 25.5 µM; in the assay with U251 CNS, 21.2 µM; with SF-295 CNS, 14.5 µM; with OVCAR-4 ovarian it was 37.5 µM; in the assay on SR leukemia it was 3.61 µM; in the assay with K-562 leukemia, 4.09 µM. In addition, the TGI with HT29 colon worked out at 8.68 µM; with NCI-H522 lung, 11.1 µM; with COLO 205 colon, 13.3 µM; in the assay on A498 renal, 14.5 µM.

As to `Cn1c(=O)c2c(nc3n2C(CCl)CO3)n(C)c1=O` (configuration not stated), the TGI in the assay on SF-268 CNS, with U251 CNS, with SF-295 CNS, in the assay with OVCAR-4 ovarian, with SR leukemia and in the assay on K-562 leukemia was more than 100 µM each time. The TGI in the assay with HT29 colon, with NCI-H522 lung, in the assay on COLO 205 colon and with A498 renal was more than 100 µM each time.

For the compound `COc1cccc(C2C3=C(COC3=O)N(CCO)c3cc4c(cc32)CCC4)c1` (configuration not stated), the GI50 with SF-268 CNS was 0.0731 µM; in the assay with U251 CNS, 0.143 µM; in the assay on SF-295 CNS, 0.0148 µM; in the assay on OVCAR-4 ovarian, 0.114 µM; in the assay with SR leukemia, 0.015 µM; in the assay with K-562 leukemia, 0.0279 µM. In addition, the GI50 in the assay with HT29 colon was 0.042 µM; with NCI-H522 lung it was 0.00644 µM; in the assay on COLO 205 colon, 0.0584 µM; in the assay on A498 renal, 0.0154 µM. For the same compound, the TGI with SF-268 CNS is 5.93 µM; in the assay with U251 CNS, 11.5 µM; in the assay on SF-295 CNS, 0.543 µM; in the assay with OVCAR-4 ovarian it was more than 50 µM; with SR leukemia, 0.165 µM; in the assay on K-562 leukemia, 8.81 µM. Moreover, the TGI in the assay on HT29 colon turned out to be 0.156 µM; in the assay on NCI-H522 lung, 0.0165 µM; with COLO 205 colon it was 0.198 µM; in the assay on A498 renal it was 0.0483 µM.
